In patent US4808711A, “Cephalosporin derivatives” (Sankei Pharmaceutical Co., Ltd., priority 1985, dated 1989):
Values after ≈ are worked out from the molar mass of the structure shown. Like-named read-outs stand apart in the source and are kept apart here.

Experiments:
Type in all cases: cell-based
[1] = tested on: E. coli NIHJ JC-2; experiment: MIC, E. coli NIHJ JC-2; conditions: Escherichia coli, NIHJJC2, read-out: MIC
Description: (§1) The minimum inhibition concentrations (MIC) of the compounds obtained by the present invention were measured according to the standard method of Japanese Chemotherapy Association.

[2] = tested on: P. vulgaris ATCC6380; experiment: MIC, P. vulgaris ATCC6380; conditions: Proteus vulgaris, read-out: MIC
Description: as §1

[3] = tested on: E. coli ATCC25922; experiment: MIC, E. coli ATCC25922; conditions: Escherichia coli, read-out: MIC
Description: as §1

[4] = tested on: C. freundii IFO12681; experiment: MIC, C. freundii IFO12681; conditions: Citrobacter freundii, read-out: MIC
Description: as §1

[5] = tested on: P. putida ATCC12633; experiment: MIC, P. putida ATCC12633; conditions: Pseudomonas putida
Description: as §1

[6] = tested on: S. epidermidis ATCC14990; experiment: MIC, S. epidermidis ATCC14990; conditions: Staphylococcus epidermidis, read-out: MIC
Description: as §1

[7] = tested on: S. aureus Smith; experiment: MIC, S. aureus Smith; conditions: Staphylococcus aureus, read-out: MIC
Description: as §1

[8] = tested on: P. maltophilia ATCC13637; experiment: MIC, P. maltophilia ATCC13637; conditions: Stenotrophomonas maltophilia
Description: as §1

[9] = tested on: S. typhimurium ATCC13311; experiment: MIC, S. typhimurium ATCC13311; conditions: Salmonella enterica, read-out: MIC
Description: as §1

[10] = tested on: S. aureus ATCC25923; experiment: MIC, S. aureus ATCC25923; conditions: Staphylococcus aureus
Description: as §1

[11] = tested on: S. dysenteriae 4379-60; experiment: MIC, S. dysenteriae 4379-60; conditions: Shigella dysenteriae, 437960
Description: as §1

[12] = tested on: P. aeruginosa ATCC9721; experiment: MIC, P. aeruginosa ATCC9721; conditions: Pseudomonas aeruginosa
Description: as §1

[13] = tested on: S. marcescens IFO12648; experiment: MIC, S. marcescens IFO12648; conditions: Serratia marcescens, read-out: MIC
Description: as §1

[14] = tested on: S. flexneri Y NCTC 9730; experiment: MIC, S. flexneri Y NCTC 9730; conditions: Shigella flexneri, NCTC9730, read-out: MIC
Description: as §1

[15] = tested on: S. paratyphi B; experiment: MIC, S. paratyphi B; conditions: Salmonella enterica, PARATYPHI
Description: as §1

[16] = tested on: E. cloacae ATCC13047; experiment: MIC, E. cloacae ATCC13047; conditions: Enterobacter cloacae
Description: as §1

[17] = tested on: S. newport 563; experiment: MIC, S. newport 563; conditions: Salmonella enterica, read-out: MIC
Description: as §1

[18] = tested on: P. cepacia ATCC25416; experiment: MIC, P. cepacia ATCC25416; conditions: Burkholderia cepacia, read-out: MIC
Description: as §1

[19] = tested on: S. paratyphi C 33-76; experiment: MIC, S. paratyphi C 33-76; conditions: Salmonella enterica, PARATYPHI
Description: as §1

[20] = tested on: S. sonnei SH72-415; experiment: MIC, S. sonnei SH72-415; conditions: Shigella sonnei, SH72415, read-out: MIC
Description: as §1

[21] = tested on: S. flexneri 2a CDC 4807-62; experiment: MIC, S. flexneri 2a CDC 4807-62; conditions: Shigella flexneri, read-out: MIC
Description: as §1

[22] = tested on: B. subtilis ATCC6633; experiment: MIC, B. subtilis ATCC6633; conditions: Bacillus subtilis
Description: as §1

[23] = tested on: S. anatum 677-69; experiment: MIC, S. anatum 677-69; conditions: Salmonella enterica, 67769, read-out: MIC
Description: as §1

[24] = tested on: S. aureus TASAKI; experiment: MIC, S. aureus TASAKI; conditions: Staphylococcus aureus
Description: as §1

[25] = tested on: K. pneumoniae ATCC27736; experiment: MIC, K. pneumoniae ATCC27736; conditions: Klebsiella pneumoniae, read-out: MIC
Description: as §1

[26] = tested on: S. boyadii CDC 2064-59; experiment: MIC, S. boyadii CDC 2064-59
Description: as §1

[27] = tested on: S. typhi 1099-77; experiment: MIC, S. typhi 1099-77; conditions: Salmonella enterica
Description: as §1

[28] = tested on: S. aureus 209P JC-1; experiment: MIC, S. aureus 209P JC-1; conditions: Staphylococcus aureus
Description: as §1

[29] = tested on: S. typhimurium IFO 12529; experiment: MIC, S. typhimurium IFO 12529; conditions: Salmonella enterica, read-out: MIC
Description: as §1

[30] = tested on: P. rettgeri ATCC14505; experiment: MIC, P. rettgeri ATCC14505; conditions: Providencia rettgeri, read-out: MIC
Description: as §1

[31] = tested on: S. paratyphi A 144-12-93; experiment: MIC, S. paratyphi A 144-12-93; conditions: Salmonella enterica, PARATYPHI
Description: as §1

[32] = tested on: S. faecalis IFO3826; experiment: MIC, S. faecalis IFO3826; conditions: Enterococcus faecalis, read-out: MIC
Description: as §1

[33] = tested on: P. vulgaris ATCC6398; experiment: MIC, P. vulgaris ATCC6398; conditions: Proteus vulgaris, read-out: MIC
Description: as §1

[34] = tested on: P. mirabilis IFO3849; experiment: MIC, P. mirabilis IFO3849; conditions: Proteus mirabilis, read-out: MIC
Description: as §1

[35] = tested on: P. fluorescens ATCC13525; experiment: MIC, P. fluorescens ATCC13525; conditions: Pseudomonas fluorescens, read-out: MIC
Description: as §1

[36] = S. aureus ATCC25923, read-out: MIC
[37] = P. aeruginosa ATCC9721, read-out: MIC
[38] = B. subtilis ATCC6633, read-out: MIC
[39] = S. aureus 209P JC-1, read-out: MIC

SMILES | MIC [1] | MIC [2] | MIC [3] | MIC [4] | MIC [5] | MIC [6] | MIC [7] | MIC [8] | MIC [9] | MIC [11] | MIC [13] | MIC [14] | MIC [15] | MIC [16] | MIC [17] | MIC [18] | MIC [19] | MIC [20] | MIC [21] | MIC [23] | further results
CO[C@@]1(NC(=O)C(C(=O)O)c2ccc(O)cc2)C(=O)N2C(C(=O)O)=C(CSc3nnnn3C)CO[C@@H]21 (some centres unmarked) [LMOX, latamoxiceph] | 0.2 µg/mL (≈ 0.384 µM) | 0.2 µg/mL (≈ 0.384 µM) | 0.2 µg/mL (≈ 0.384 µM) | 0.1 µg/mL (≈ 0.192 µM) | 25 µg/mL (≈ 48 µM) | 6.25 µg/mL (≈ 12 µM) | 6.25 µg/mL (≈ 12 µM) | 25 µg/mL (≈ 48 µM) | 0.05 µg/mL (≈ 0.0961 µM) | 0.05 µg/mL (≈ 0.0961 µM) | 0.2 µg/mL (≈ 0.384 µM) | 3.13 µg/mL (≈ 6.01 µM) | 0.05 µg/mL (≈ 0.0961 µM) | 0.78 µg/mL (≈ 1.5 µM) | 0.1 µg/mL (≈ 0.192 µM) | 6.25 µg/mL (≈ 12 µM) | 0.025 µg/mL (≈ 0.048 µM) | 0.1 µg/mL (≈ 0.192 µM) | 0.1 µg/mL (≈ 0.192 µM) | 0.1 µg/mL (≈ 0.192 µM) | MIC ([10]; ATCC25923): 3.13 µg/mL (≈ 6.01 µM); MIC ([12]; ATCC9721): 3.13 µg/mL (≈ 6.01 µM); MIC ([22]; ATCC6633): 3.13 µg/mL (≈ 6.01 µM); MIC [24]: 3.13 µg/mL (≈ 6.01 µM); MIC [25]: 0.05 µg/mL (≈ 0.0961 µM); MIC [26]: 3.13 µg/mL (≈ 6.01 µM); MIC ([27]; TYPHI): 0.05 µg/mL (≈ 0.0961 µM); MIC ([28]; 209P): 3.13 µg/mL (≈ 6.01 µM); MIC [29]: 0.1 µg/mL (≈ 0.192 µM); MIC [30]: 0.1 µg/mL (≈ 0.192 µM); MIC [31]: 0.2 µg/mL (≈ 0.384 µM); MIC [32]: > 100 µg/mL; MIC [33]: 0.2 µg/mL (≈ 0.384 µM); MIC [34]: 0.1 µg/mL (≈ 0.192 µM)
CO/N=C(\C(=O)N[C@@H]1C(=O)N2C(C(=O)O)=C(COC(C)=O)CS[C@H]12)c1csc(N)n1 [CTX, cephotaxim] | 0.1 µg/mL (≈ 0.22 µM) | 0.05 µg/mL (≈ 0.11 µM) | 0.1 µg/mL (≈ 0.22 µM) | 0.1 µg/mL (≈ 0.22 µM) | 50 µg/mL (≈ 110 µM) | 0.78 µg/mL (≈ 1.71 µM) | 3.13 µg/mL (≈ 6.87 µM) | 50 µg/mL (≈ 110 µM) | 0.05 µg/mL (≈ 0.11 µM) | 0.012 µg/mL (≈ 0.0263 µM) | 0.2 µg/mL (≈ 0.439 µM) | 0.05 µg/mL (≈ 0.11 µM) | 0.1 µg/mL (≈ 0.22 µM) | 3.13 µg/mL (≈ 6.87 µM) | 0.1 µg/mL (≈ 0.22 µM) | 0.78 µg/mL (≈ 1.71 µM) | ≤ 0.006 µg/mL | 0.05 µg/mL (≈ 0.11 µM) | 0.025 µg/mL (≈ 0.0549 µM) | 0.1 µg/mL (≈ 0.22 µM) | MIC [10, 36]: 0.78 µg/mL (≈ 1.71 µM); MIC [12, 37]: 3.13 µg/mL (≈ 6.87 µM); MIC [35]: 25 µg/mL (≈ 54.9 µM); MIC [22, 38]: 0.39 µg/mL (≈ 0.856 µM); MIC [24]: 1.56 µg/mL (≈ 3.43 µM); MIC [25]: 0.1 µg/mL (≈ 0.22 µM); MIC [26]: 0.39 µg/mL (≈ 0.856 µM); MIC ([27]; S. typhi 1099-77, read-out: MIC): 0.1 µg/mL (≈ 0.22 µM); MIC [28, 39]: 0.39 µg/mL (≈ 0.856 µM); MIC [29]: 0.2 µg/mL (≈ 0.439 µM); MIC [30]: 0.1 µg/mL (≈ 0.22 µM); MIC [31]: 0.2 µg/mL (≈ 0.439 µM); MIC [32]: > 100 µg/mL; MIC [33]: ≤ 0.006 µg/mL; MIC [34]: 0.05 µg/mL (≈ 0.11 µM)
Cc1nnc(SCC2=C(C(=O)O)N3C(=O)C(NC(=O)C(=NOCC(=O)NNC(=O)c4ccc(O)c(O)c4)c4csc(N)n4)C3SC2)s1 (centres unmarked) [Example 59] | 0.39 µg/mL (≈ 0.54 µM) | 0.39 µg/mL (≈ 0.54 µM) | 0.1 µg/mL (≈ 0.139 µM) | 0.78 µg/mL (≈ 1.08 µM) | 0.78 µg/mL (≈ 1.08 µM) | 0.39 µg/mL (≈ 0.54 µM) | 0.78 µg/mL (≈ 1.08 µM) | 0.78 µg/mL (≈ 1.08 µM) | 0.1 µg/mL (≈ 0.139 µM) | 0.05 µg/mL (≈ 0.0693 µM) | 0.39 µg/mL (≈ 0.54 µM) | 0.78 µg/mL (≈ 1.08 µM) | 0.012 µg/mL (≈ 0.0166 µM) | 1.56 µg/mL (≈ 2.16 µM) | 0.05 µg/mL (≈ 0.0693 µM) | 0.39 µg/mL (≈ 0.54 µM) | 0.012 µg/mL (≈ 0.0166 µM) | 0.05 µg/mL (≈ 0.0693 µM) | 0.2 µg/mL (≈ 0.277 µM) | 0.025 µg/mL (≈ 0.0346 µM) | MIC [10, 36]: 0.78 µg/mL (≈ 1.08 µM); MIC [12, 37]: 0.1 µg/mL (≈ 0.139 µM); MIC [35]: 12.5 µg/mL (≈ 17.3 µM); MIC [22, 38]: 0.39 µg/mL (≈ 0.54 µM); MIC ([24]; S. aureus TASAKI, standard method of Japanese Chemotherapy Association, read-out: MIC): 1.56 µg/mL (≈ 2.16 µM); MIC [25]: 0.012 µg/mL (≈ 0.0166 µM); MIC [26]: 0.39 µg/mL (≈ 0.54 µM); MIC ([27]; TYPHI): ≤ 0.006 µg/mL; MIC [28, 39]: 0.39 µg/mL (≈ 0.54 µM); MIC [29]: 0.1 µg/mL (≈ 0.139 µM); MIC [30]: 0.78 µg/mL (≈ 1.08 µM); MIC [31]: 0.025 µg/mL (≈ 0.0346 µM); MIC [32]: > 100 µg/mL; MIC [33]: 0.05 µg/mL (≈ 0.0693 µM); MIC [34]: 0.39 µg/mL (≈ 0.54 µM)
